# Results published in US12180187B2, “1-phenyl-5-azinylpyrazolyl-3-oxyalkyl acids and their use for controlling unwanted plant growth” (BAYER AKTIENGESELLSCHAFT, priority 2019, dated 2024).
# Experiments:
# [1] = system: DIGSA; assay: Pre-emergence action against DIGSA, 1280 g/ha; format: in vivo, Digitaria sanguinalis; settings: visual scoring after about 3 weeks vs untreated controls, 100% = plants have died, 0% = like control plants
# How it was run: (§1)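 Mono- and dicot weed seeds sown in sandy loam were treated on the covering soil surface with WP or EC formulations plus 0.5% additive at 600 L water/ha. Pots stayed in a greenhouse; damage was scored visually after ~3 weeks as percent versus untreated controls (100% = dead).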
# [2] = system: ECHCG; assay: Pre-emergence action against ECHCG, 1280 g/ha; format: in vivo, Echinochloa crus-galli; settings: visual scoring after about 3 weeks vs untreated controls, 100% = plants have died, 0% = like control plants
# How it was run: as §1
# [3] = system: POAAN; assay: Pre-emergence action against POAAN, 1280 g/ha; format: in vivo, Poa annua; settings: visual scoring after about 3 weeks vs untreated controls, 100% = plants have died, 0% = like control plants
# How it was run: as §1
# [4] = system: SETVI; assay: Pre-emergence action against SETVI, 1280 g/ha; format: in vivo, Setaria viridis; settings: visual scoring after about 3 weeks vs untreated controls, 100% = plants have died, 0% = like control plants
# How it was run: as §1
# [5] = system: AMARE; assay: Pre-emergence action against AMARE, 1280 g/ha; format: in vivo, Amaranthus retroflexus; settings: scored visually after about 3 weeks vs untreated controls (100% = plants have died)
# How it was run: as §1
# [6] = system: KCHSC; assay: Pre-emergence action against KCHSC, 1280 g/ha; format: in vivo, Bassia scoparia; settings: scored visually after about 3 weeks vs untreated controls (100% = plants have died)
# Text: 1. Pre-Emergence Herbicidal Effect and Crop Plant Compatibility a) Seeds of mono- and dicotyledonous weed plants are placed in plastic pots in sandy loam soil (doubly sown with one species each of mono- or dicotyledonous weed plants per pot) and covered with soil. The compounds of the invention, formulated in the form of wettable powders (WP) or as emulsion concentrates (EC), are then applied onto the surface of the covering soil as aqueous suspension or emulsion with addition of 0.5% additive at a water application rate equivalent to 600 litres per hectare. After the treatment, the pots are placed in a greenhouse and kept under good growth conditions for the trial plants. After about 3 weeks, the effect of the preparations is scored visually in comparison with untreated controls as percentages. For example, 100% activity=the plants have died, 0% activity=like control plants. 1. Pre-Emergence Effectiveness Tables 1 to 12 below show the effects of selected compounds of the general formula (I) according to Tables 1 and 2 on various harmful plants and at an application rate corresponding to 1280 g/ha, which were obtained by the experimental procedure mentioned above.
# [7] = system: MATIN; assay: Pre-emergence action against MATIN, 1280 g/ha; format: in vivo, Tripleurospermum inodorum (Matricaria inodora); settings: scored visually after about 3 weeks vs untreated controls (100% = plants have died)
# How it was run: as §1
# [8] = system: STEME; assay: Pre-emergence action against STEME, 1280 g/ha; format: in vivo, Stellaria media; settings: scored visually after about 3 weeks vs untreated controls (100% = plants have died)
# How it was run: as §1
# [9] = system: DIGSA; assay: Post-emergence action against DIGSA, 1.28 kg/ha; format: in vivo, Digitaria sanguinalis; settings: dosage 1280 g/ha, visual rating about 3 weeks after treatment vs untreated controls
# How it was run: (§2)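 Weeds grown in sandy loam in a greenhouse were sprayed at the one-leaf stage, 2–3 weeks after sowing, with WP or EC formulations in water containing 0.5% additive at 600 L/ha. About 3 weeks later, damage was scored visually versus untreated controls (0% = like control, 100% = dead).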
# [10] = system: POAAN; assay: Post-emergence action against POAAN, 1.28 kg/ha; format: in vivo, Poa annua; settings: dosage 1280 g/ha, visual rating about 3 weeks after treatment vs untreated controls
# How it was run: as §2
# [11] = system: ABUTH; assay: Post-emergence action against ABUTH, 1.28 kg/ha; format: in vivo, Abutilon theophrasti; settings: dosage 1280 g/ha, visual rating about 3 weeks after treatment vs untreated controls (100% = plants died)
# How it was run: as §2
# [12] = system: AMARE; assay: Post-emergence action against AMARE, 1.28 kg/ha; format: in vivo, Amaranthus retroflexus; settings: dosage 1280 g/ha, visual rating about 3 weeks after treatment vs untreated controls (100% = plants died)
# How it was run: as §2
# [13] = system: KCHSC; assay: Post-emergence action against KCHSC, 1.28 kg/ha; format: in vivo, Bassia scoparia; settings: dosage 1280 g/ha, visual rating about 3 weeks after treatment vs untreated controls (100% = plants died)
# Method: • a) Seeds of mono- and dicotyledonous weed plants are placed in plastic pots in sandy loam soil (twin sowing with one species each of mono- or dicotyledonous weed plants per pot), covered with soil and cultivated in a greenhouse under controlled growth conditions. 2 to 3 weeks after sowing, the test plants are treated at the one-leaf stage. The compounds of the invention, formulated in the form of wettable powders (WP) or as emulsion concentrates (EC), are applied to the green parts of the plants as aqueous suspension or emulsion with addition of 0.5% additive at a water application rate equivalent to 600 litres per hectare. After the test plants have been kept in the greenhouse under optimum growth conditions for about 3 weeks, the activity of the preparations is rated visually in comparison to untreated controls. For example, 100% activity=the plants have died, 0% activity=like control plants. As shown by the results, compounds of the general formula (I) of the invention, in post-emergence treatment, have very good herbicidal efficacy (90% to 100% herbicidal action) against harmful plants such as Abutilon theophrasti, Digitaria sanguinalis, Echinochloa crus-galli, Matricaria inodora, Poa annua, at an application rate of 1.28 kg of active substance per hectare.
# [14] = system: MATIN; assay: Post-emergence action against MATIN, 1.28 kg/ha; format: in vivo, Tripleurospermum inodorum (Matricaria inodora); settings: dosage 1280 g/ha, visual rating about 3 weeks after treatment vs untreated controls (100% = plants died)
# How it was run: as §2
# [15] = system: STEME; assay: Post-emergence action against STEME, 1.28 kg/ha; format: in vivo, Stellaria media; settings: dosage 1280 g/ha, visual rating about 3 weeks after treatment vs untreated controls (100% = plants died)
# How it was run: as §2
# [16] = system: VERPE; assay: Post-emergence action against VERPE, 1.28 kg/ha; format: in vivo, Veronica persica; settings: dosage 1280 g/ha, visual rating about 3 weeks after treatment vs untreated controls (100% = plants died)
# How it was run: as §2
# [17] = system: ALOMY; assay: Pre-emergence action against ALOMY, 1280 g/ha; format: in vivo, Alopecurus myosuroides; settings: visual scoring after about 3 weeks vs untreated controls, 100% = plants have died, 0% = like control plants
# How it was run: as §1
# [18] = system: LOLRI; assay: Pre-emergence action against LOLRI, 1280 g/ha; format: in vivo, Lolium rigidum; settings: visual scoring after about 3 weeks vs untreated controls, 100% = plants have died, 0% = like control plants
# How it was run: as §1
# [19] = system: VERPE; assay: Pre-emergence action against VERPE, 1280 g/ha; format: in vivo, Veronica persica; settings: scored visually after about 3 weeks vs untreated controls (100% = plants have died)
# How it was run: as §1
# [20] = system: ALOMY; assay: Post-emergence action against ALOMY, 1.28 kg/ha; format: in vivo, Alopecurus myosuroides; settings: dosage 1280 g/ha, visual rating about 3 weeks after treatment vs untreated controls
# How it was run: as §2
# [21] = system: ECHCG; assay: Post-emergence action against ECHCG, 1.28 kg/ha; format: in vivo, Echinochloa crus-galli; settings: dosage 1280 g/ha, visual rating about 3 weeks after treatment vs untreated controls
# How it was run: as §2
Structure (SMILES),Pre-emergence action against DIGSA [1],Pre-emergence action against ECHCG [2],Pre-emergence action against POAAN [3],Pre-emergence action against SETVI [4],Pre-emergence action against AMARE [5],Pre-emergence action against KCHSC [6],Pre-emergence action against MATIN [7],Pre-emergence action against STEME [8],Post-emergence action against DIGSA [9],Post-emergence action against POAAN [10],Post-emergence action against ABUTH [11],Post-emergence action against AMARE [12],Post-emergence action against KCHSC [13],Post-emergence action against MATIN [14],Post-emergence action against STEME [15],Post-emergence action against VERPE [16],Pre-emergence action against LOLRI [18],Pre-emergence action against VERPE [19],Post-emergence action against ALOMY [20],Post-emergence action against ECHCG [21],also measured
O=C(O)COc1nn(-c2ccccc2F)c(-c2ccnnc2)c1Br [IV-002],90%,100%,100%,100%,100%,90%,100%,100%,100%,100%,90%,100%,90%,90%,100%,90%,,,,,
CCOC(=O)COc1nn(-c2ccccc2F)c(-c2cncnc2)c1[N+](=O)[O-] [VI-005],100%,90%,100%,100%,100%,90%,100%,100%,,100%,90%,90%,90%,90%,100%,90%,100%,100%,90%,90%,Pre-emergence action against ALOMY [17]: 90%
COC(=O)[C@H](C)Oc1nn(-c2ccccc2F)c(-c2cncnc2)c1Br [VI-008],100%,,100%,100%,100%,90%,90%,100%,100%,100%,90%,,90%,90%,90%,,100%,,,,
CON(C)C(=O)COc1nn(-c2ccc(F)cc2F)c(-c2ccc(F)nc2)c1Br [Example X-025],100%,100%,100%,100%,100%,100%,100%,100%,100%,100%,,,90%,90%,,100%,100%,100%,100%,100%,Pre-emergence action against ALOMY [17]: 100%
O=C(O)COc1nn(-c2ccc(F)cc2)c(-c2ccc(F)nc2)c1C(F)(F)F [VII-125],100%,100%,100%,100%,90%,100%,90%,90%,100%,100%,,90%,90%,90%,90%,100%,100%,90%,100%,90%,
COC(=O)CNC(=O)COc1nn(-c2ccc(F)cc2)c(-c2ccc(F)nc2)c1C(F)(F)F [Example X-020],100%,100%,100%,100%,90%,90%,90%,90%,,100%,90%,100%,100%,90%,100%,100%,100%,90%,100%,100%,Pre-emergence action against ALOMY [17]: 100%
